Assay results from patent publication US12501899B2, “Mite infestation treatment” (priority 2019, dated 2025).
Where a name gives a salt, the structure may show the parent alone. Read-outs that look alike come from different tables or passages of the source.

Columns and labels:
[1] = tested on: Varroa destructor; assay: Efficiency against Varroa mites in beehives outside the brood (gel application); assay type: in vivo
Description: (§1) 18 hives of bees were divided into 6 groups of 3 homogeneous hives as regards the strength of the colonies (number of bees) and the Varroa infestation.
The queen of each hive was caged 3 weeks before the application of the tested compounds. The application of the tested compounds was therefore carried out in a situation outside the brood, which allows the forced passage of the Varroa mites from their reproduction phase to their phoresy phase (they are therefore all present on the bees).
(§2) The tested compounds were applied in the form of a gel three weeks after the queen was caged. The activity of the compounds was studied for a period of 9 days.
Following these 9 days of treatment, a control treatment with oxalic acid was carried out (duration of treatment equal to 1 week).
Counts of Varroa mites falling on the floor were carried out at regular time intervals to quantify the number of dead Varroa mites.
The efficiency of the treatment was calculated by taking the sum of all the dead Varroa mites from D0 to D9 (tested compounds) and dividing it by the sum of all the dead Varroa mites from D0 to D16 (tested compounds+control treatment).
(§3) The following compounds were tested: • Dexmedetomidine at 55 mg/hive in hydrochloride form, • Dexmedetomidine at 110 mg/hive in hydrochloride form, • Dexmedetomidine at 220 mg/hive in hydrochloride form, • Detomidine at 38.4 mg/hive in hydrochloride form, • Detomidine at 110 mg/hive in hydrochloride form, • Detomidine at 220 mg/hive in hydrochloride form, Results

[2] = tested on: Rhipicephalus sanguineus; assay: Topical acaricidal test on brown dog ticks; assay type: in vivo; settings: 168 h, 0.5 μl per tick, after 7 days of treatment; for mortality at 1 ppm: 1 ppm topical; for mortality at 10 ppm: 10 ppm topical; for mortality at 100 ppm: 100 ppm topical; for mortality at 1000 ppm: 1000 ppm topical
Experimental: Brown dog ticks, Rhipicephalus sanguineus, of 2nd stage, from a single cohort were used.
Three (3) compounds were tested, as well as a reference compound (Amitraze). For each compound tested and Amitraz, four doses (1000, 100, 10 and 1 ppm) were applied to the ticks topically. A negative control (acetone) and an untreated group were included for comparison. The experiments were carried out in triplicate.
Ten ticks were placed in a clear plastic container, measuring approximately 120 mm in diameter and 45 mm in height. The ticks were then anesthetized by direct exposure (for 10 seconds) to carbon dioxide. The treatments were then applied to the back (scutum) of each tick, using a Hamilton syringe, up to 0.5 μl of treatment per tick (1 application).
Cotton soaked in water was placed in each container to provide humidity throughout the experiment. The container was also vented throughout the experiment with a tube to introduce air into each container. The containers were maintained at a temperature of 23±3° C. Live, shocked and dead tick counts were taken daily after treatment for 7 days.
The averages in percentage of each evaluation category (healthy, knocked down and dead) were calculated, as well as the standard error. An analysis of variance (ANOVA) was performed using Minitab software, 16th edition.

[3] = tested on: bees; assay: Mortality of adult bees in treated beehives (dead bee traps); assay type: in vivo
Experimental: as §1, §2
For this purpose, dead bee traps disposed in front of the hives were used.
as §3

[4] = tested on: bees; settings: 100 μg/mL syrup ad libitum
Experimental: Bees and Varroa mites were obtained and contacted as detailed in Example 1 (without the treatment step).
The bees on which the Varroa mites are attached (10 bees placed in contact with 10 Varroa mites) were fed with: • A pure syrup (Negative control), or • A syrup comprising dexmedetomidine hydrochloride at 100 μg/mL syrup.
The syrup was provided to the bees ad libitum in 1.5 mL eppendorf tubes.

[5] = tested on: bees (Apis mellifera)
Experimental: The bees were then dispatched in the boxes (10 per box).
The bees were then put to sleep for a few minutes using CO2 (flow of 3 liters for 20 seconds) in order to deposit 1 μL of compound to be tested on their thorax using a pipette. It should be noted that the bees which received romifidine hydrochloride at a concentration of 10 μg/μL received 2 μL of product. The bees were unconscious for the time the compound to be tested was deposited, that is to say around three minutes, then they woke up.
After thoracic deposition of the compound to be tested, the 10 bees from the same box were transferred to a box containing the 10 Varroa mites (cf. “Preparation of Varroa mites” above). Liquid sugar was left in each of the boxes to feed the bees during the observations. The series of boxes was then placed in an oven at […] with a humidity of 50% in order to approximate hive conditions as closely as possible.
The mortality of Varroa mites and bees was then monitored 5 minutes, 2 hours, 4 hours and 24 hours after application of the compound to be tested to the bees. Dead Varroa mites correspond to Varroa mites detached from the bees. Dead bees correspond to bees which no longer move and which are often placed on their thorax.
The following compositions were applied to the thorax of the bees: • Solvent, • Amitraz at 1 μg/μL in acetone, • Clonidine hydrochloride at 100 μg/μL, 10 μg/μL, 1 μg/μL and 0.1 μg/μL in methanol, • Detomidine hydrochloride monohydrate at 1 μg/μL in methanol, • Dexmedetomidine hydrochloride at 100 μg/μL, 10 μg/μL, 1 μg/μL and 0.1 μg/μL in methanol, • Romifidine hydrochloride at 10 μg/μL and at 5 μg/μL in methanol, • Tizanidine hydrochloride at 1 μg/μL in methanol, • Medetomidine hydrochloride at 0.1 μg/μL in ethanol, • Levomedetomidine hydrochloride at 100 μg/μL, 10 μg/μL, 1 μg/μL and 0.1 μg/μL in methanol, • Octopamine at 1 μg/μL in ethanol. Results

| SMILES | Varroacid effect in the hive (in words) ([1]; 220 mg/hive, gel, 9 days) | mortality at 1 ppm [2] | mortality at 10 ppm [2] | mortality at 100 ppm [2] | mortality at 1000 ppm [2] | mortality of the bees in the hive (in words) ([3]; 220 mg/hive) | total efficiency against Varroa mites (dead Varroa D0 to D9 / dead Varroa D0 to D16) ([1]; 220 mg/hive, gel, 9 days, outside the brood) | dose dependence of efficiency against Varroa mites (in words) ([1]; 55, 110, 220 mg/hive) | % bee mortality ([4]; 5 min) | % bee mortality ([4]; 1 h) | % bee mortality ([4]; 2 h) | % bee mortality ([4]; 3 h 30) | % bee mortality ([4]; 3 h 45) | % bee mortality ([4]; 24 h) | mortality for bees ([5]; 0.1 μg/μL, after 24 hours) | mortality / toxicity for the bees ([5]; 1 μg/μL, after 24 hours) | mortality for bees ([5]; 10 μg/μL, after 24 hours) | toxicity for bees ([5]; 100 μg/μL) | bee mortality in the hive (in words) ([3]; 55, 110, 220 mg/hive) | bees killed / bee mortality ([5]; 1 μg/μL, 1 μL on bee thorax, time not stated (monitored up to 24 hours)) |
| --- | --- | --- | --- | --- | --- | --- | --- | --- | --- | --- | --- | --- | --- | --- | --- | --- | --- | --- | --- | --- |
| Cc1cccc(Cc2cnc[nH]2)c1C [Detomidine hydrochloride, 4-[(2,3-dimethylphenyl)-methyl]-3H-imidazole] | allows to have a Varroacid effect | 26.7% | 23.3% | 50% | 100% | increase in the mortality of the bees |  |  |  |  |  |  |  |  |  |  |  |  |  |  |
| Cc1cccc([C@H](C)c2c[nH]cn2)c1C [Dexmedetomidine hydrochloride, (S)-4-[1-(2,3-dimethylphenyl)-ethyl]-1H-imidazole] |  | 20% | 93.3% | 100% | 100% |  | 94.5% | dose effect | 0% | 0% | 5% | 5% | 5% | 5% | less than 5% | less than 5% | less than 5% | toxic for bees | no increase in bee mortality |  |
| Cc1ccc(/N=C/N(C)/C=N/c2ccc(C)cc2C)c(C)c1 [Amitraz] |  | 30% | 46.7% | 96.7% | 100% |  |  |  |  |  |  |  |  |  |  |  |  |  |  | 0% |
| Cc1cccc(C(C)c2cnc[nH]2)c1C (racemic) [Medetomidine hydrochloride] |  | 26.7% | 66.7% | 93.3% | 100% |  |  |  |  |  |  |  |  |  |  |  |  |  |  |  |
